This experiment has as its target T1, PSMA (Homo sapiens, UniProt Q04609).
T1 construct: host or cells: LNCaP cells
Put plainly: Competitive binding (IC50) on LNCaP cells vs ([125I]I-BA)KuE. The following applies: 1 h, 4 °C, n = 5-9, read-out: IC50 (binding affinity). The protocol:
Competitive binding studies were determined on LNCaP cells (1.5 × 10^5 cells in 1 mL/well) after incubation at 4 °C for 1 h, using (((S)-1-carboxy-5-(4-([^125I]iodo)benzamido)pentyl)carbamoyl)-L-glutamic acid (([^125I]I-BA)KuE; 0.2 nM/well) as reference radioligand (n = 5–9). Internalization studies of the radiolabeled ligands (0.5 nM/well) were performed on LNCaP cells (1.25 × 10^5 cells in 1 mL/well) at 37 °C for 1 h and accompanied by ([^125I]I-BA)KuE (0.2 nM/well), as reference. Data were corrected for non-specific binding and normalized to the specific internalization observed for the reference (n = 3–6). A detailed description of the experimental procedures was previously published.
T1 sequence (Q04609 whole entry): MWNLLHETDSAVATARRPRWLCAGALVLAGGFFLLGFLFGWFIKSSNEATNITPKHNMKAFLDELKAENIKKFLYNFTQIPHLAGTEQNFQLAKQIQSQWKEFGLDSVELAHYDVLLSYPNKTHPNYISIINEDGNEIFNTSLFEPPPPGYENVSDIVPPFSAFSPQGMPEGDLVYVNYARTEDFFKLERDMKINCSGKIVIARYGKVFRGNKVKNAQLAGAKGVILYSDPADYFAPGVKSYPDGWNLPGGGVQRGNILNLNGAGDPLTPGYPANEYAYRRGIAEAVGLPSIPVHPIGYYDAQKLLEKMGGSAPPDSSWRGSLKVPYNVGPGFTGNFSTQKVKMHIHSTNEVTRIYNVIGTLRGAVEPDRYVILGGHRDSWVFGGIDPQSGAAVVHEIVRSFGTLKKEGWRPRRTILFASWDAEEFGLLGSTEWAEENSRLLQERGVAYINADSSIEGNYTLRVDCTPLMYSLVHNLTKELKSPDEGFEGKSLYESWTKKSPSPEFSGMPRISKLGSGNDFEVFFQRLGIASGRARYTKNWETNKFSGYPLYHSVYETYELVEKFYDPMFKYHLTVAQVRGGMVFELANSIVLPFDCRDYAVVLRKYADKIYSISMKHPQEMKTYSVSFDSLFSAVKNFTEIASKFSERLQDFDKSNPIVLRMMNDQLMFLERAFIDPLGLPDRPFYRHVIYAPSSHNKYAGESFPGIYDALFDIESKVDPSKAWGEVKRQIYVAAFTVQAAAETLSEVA
For `CC(C)(C)[Si](F)(c1ccc(C(=O)NC[C@@H](NC(=O)CC[C@H](C(=O)O)N2CCN(CC(=O)[O-])CCN(CC(=O)[O-])CCN(CC(=O)[O-])CC2)C(=O)N[C@H](CCCCNC(=O)CCC(=O)NCCC[C@@H](NC(=O)CC[C@H](NC(=O)N[C@@H](CCC(=O)O)C(=O)O)C(=O)O)C(=O)O)C(=O)O)cc1)C(C)(C)C.[Ga+3]` [[^18F, ^natGa]rhPSMA-7.1], the half-inhibitory concentration (IC50) (usually the point on the concentration scale where inhibition reaches its midpoint) turned out to be 6.9 ± 1.4 nM.
Then `CC(C)(C)[Si](F)(c1ccc(C(=O)NC[C@@H](NC(=O)CC[C@@H](C(=O)O)N2CCN(CC(=O)[O-])CCN(CC(=O)[O-])CCN(CC(=O)[O-])CC2)C(=O)N[C@H](CCCCNC(=O)CCC(=O)NCCC[C@@H](NC(=O)CC[C@H](NC(=O)N[C@@H](CCC(=O)O)C(=O)O)C(=O)O)C(=O)O)C(=O)O)cc1)C(C)(C)C.[Ga+3]` [[^18F, ^natGa]rhPSMA-7.3], with 4.4 ± 1.1 nM; and `CC(C)(C)[Si](F)(c1ccc(C(=O)NC[C@H](NC(=O)CC[C@H](C(=O)O)N2CCN(CC(=O)[O-])CCN(CC(=O)[O-])CCN(CC(=O)[O-])CC2)C(=O)N[C@H](CCCCNC(=O)CCC(=O)NCCC[C@@H](NC(=O)CC[C@H](NC(=O)N[C@@H](CCC(=O)O)C(=O)O)C(=O)O)C(=O)O)C(=O)O)cc1)C(C)(C)C.[Ga+3]` [[^18F, ^natGa]rhPSMA-7.2], with 3.7 ± 1 nM.
Then `CC(C)(C)[Si](F)(c1ccc(C(=O)NC[C@H](NC(=O)CC[C@@H](C(=O)O)N2CCN(CC(=O)[O-])CCN(CC(=O)[O-])CCN(CC(=O)[O-])CC2)C(=O)N[C@H](CCCCNC(=O)CCC(=O)NCCC[C@@H](NC(=O)CC[C@H](NC(=O)N[C@@H](CCC(=O)O)C(=O)O)C(=O)O)C(=O)O)C(=O)O)cc1)C(C)(C)C.[Ga+3]` [[^18F, ^natGa]rhPSMA-7.4], with 3.6 ± 0.7 nM.

Source of the values: publication PMC7721954, “Preclinical comparison of four [^18F, ^natGa]rhPSMA-7 isomers: influence of the stereoconfiguration on pharmacokinetics” (EJNMMI Research, 2020).
